From patent publication US20160135455A1, “SAFENED HERBICIDAL COMPOSITIONS COMPRISING PYRIDINE CARBOXYLIC ACIDS” (Dow AgroSciences LLC, priority 2014, published 2016)
Like-named read-outs stand apart in the source and are kept apart here.

What was measured:
Type in all cases: in vivo
[1] = system: wheat (TRZAS), Triticum aestivum (spring wheat); experiment: Postemergence greenhouse trial, crop injury (phytotoxicity/safening) on wheat; conditions: applied alone at 35 g/ha, scored 20-22 d, 0 = no injury, 100 = complete kill
Method: (§1) Seeds of the desired test plant species were planted in Sun Gro MetroMix® 306 planting mixture, which typically has a pH of 6.0 to 6.8 and an organic matter content of about 30 percent, in plastic pots with a surface area of 103.2 square centimeters (cm^2). When required to ensure good germination and healthy plants, a fungicide treatment and/or other chemical or physical treatment was applied. The plants were grown for 7-36 days (d) in a greenhouse with an approximate 14-hour (h) photoperiod which was maintained at about 23° C. during the day and 22° C. during the night. Nutrients and water were added on a regular basis and supplemental lighting was provided with overhead metal halide 1000-Watt lamps as necessary. The plants were employed for testing when they reached the second or third true leaf stage.
(§2) Weighed amounts of technical material were dissolved in a volume of 97:3 volume per volume (v/v) acetone/dimethyl sulfoxide (DMSO) to stock solutions. […] The concentrated stock solutions were diluted with an aqueous mixture of 1.5% v/v of Agri-dex crop oil concentrate to provide the appropriate application rates. Compound requirements are based upon a 12 milliliter (mL) application volume at a rate of 187 liters per hectare (L/ha). Stocks solutions of the safeners were prepared following the same procedure. Spray solutions of the safeners and experimental compound mixtures were prepared by adding the stock solutions to the appropriate amount of dilution solution to form a 12 mL spray solution in two-way combinations. Formulated compounds were applied to the plant material with an overhead Mandel track sprayer equipped with 8002E nozzles calibrated to deliver 187 L/ha over an application area of 0.503 square meters (m^2) at a spray height of 18 inches (43 centimeters (cm)) above average plant canopy. Control plants were sprayed in the same manner with the solvent blank. All herbicide application (component a) rates are in g ae/ha and all safener (component b) rates are in g ai/ha.
(§3) The treated plants and control plants were placed in a greenhouse as described above and watered by sub-irrigation to prevent wash-off of the test compounds. After 20-22 d, the condition of the test plants as compared with that of the control plants was determined visually and scored on a scale of 0 to 100 percent where 0 corresponds to no injury and 100 corresponds to complete kill. The condition of the test plants was compared with that of the control plants as determined visually and scored on a scale of 0 to 100 percent, where 0 corresponds to no injury and 100 corresponds to complete kill. Colby's equation was used to determine the herbicidal effects expected from the mixtures.
(§4) The safener fenchlorazole-ethyl was combined with compound 1, compound 2, compound 3, compound 4, compound 5, and compound 6, and applied to wheat (TRZAS), and the phytotoxicity of the herbicidal compositions was measured. In addition, the efficacy of the herbicidal composition on velvetleaf (ABUTH, Abutilon theophrasti), pigweed (AMARE, Amaranthus retroflexus), winter rape (BRSNW, Brassica napus), lambsquarters (CHEAL, Chenopodium album), thistle (CIRAR, Cirsium arvense), nutsedge (CYPES, Cyperus esculentus), poinsettia (EPHHL, Euphorbia heterophylla), wild buckwheat (POLCO, Polygonum convolvulus), giant foxtail (SETFA, Setaria faberi), sorghum (SORVU, Sorghum bicolor), chickweed (STEME, Stellaria media), and wild pansy (VIOTR, Viola tricolor) was evaluated.
The safener isoxadifen-ethyl was combined with compound 1, compound 2, compound 3, compound 4, compound 5, and compound 6, and applied to wheat (TRZAS), and the phytotoxicity of the herbicidal compositions was measured. […]

[2] = system: velvetleaf (ABUTH, Abutilon theophrasti); experiment: Postemergence greenhouse trial, herbicidal efficacy on velvetleaf; conditions: post-emergence, 528 h, applied alone at 35 g/ha, postemergence
Method: as §1, §2, §3

[3] = system: pigweed (AMARE, Amaranthus retroflexus); experiment: Postemergence greenhouse trial, herbicidal efficacy on pigweed; conditions: post-emergence, 528 h, applied alone at 35 g/ha, postemergence
Method: as §1, §2, §3

[4] = system: winter rape (BRSNW, Brassica napus); experiment: Postemergence greenhouse trial, herbicidal efficacy on winter rape; conditions: post-emergence, 528 h, applied alone at 35 g/ha, postemergence
Method: as §1, §2, §3

[5] = system: lambsquarters (CHEAL, Chenopodium album); experiment: Postemergence greenhouse trial, herbicidal efficacy on lambsquarters; conditions: post-emergence, 528 h, applied alone at 35 g/ha, postemergence
Method: as §1, §2, §3

[6] = system: thistle (CIRAR, Cirsium arvense); experiment: Postemergence greenhouse trial, herbicidal efficacy on thistle; conditions: post-emergence, 528 h, applied alone at 35 g/ha, postemergence
Method: as §1, §2, §3

[7] = system: nutsedge (CYPES, Cyperus esculentus); experiment: Postemergence greenhouse trial, herbicidal efficacy on nutsedge; conditions: applied alone at 35 g/ha; for % visual injury, Obs, CYPES: rated after 20-22 d; for Obs, % visual injury, CYPES: scored 20-22 d
Method: as §1, §2, §3

[8] = system: poinsettia (EPHHL, Euphorbia heterophylla); experiment: Postemergence greenhouse trial, herbicidal efficacy on poinsettia; conditions: applied alone at 35 g/ha, postemergence; for pest or weed control at 35 g/ha: Euphorbia heterophylla, post-emergence, 528 h, rated after 20-22 d, read-out: % visual injury, Obs, EPHHL; for Obs, % visual injury, EPHHL: scored 20-22 d
Method: as §1, §2, §3

[9] = system: wild buckwheat (POLCO, Polygonum convolvulus); experiment: Postemergence greenhouse trial, herbicidal efficacy on wild buckwheat; conditions: Fallopia convolvulus, post-emergence, 528 h, applied alone at 35 g/ha, postemergence
Method: as §1, §2, §3

[10] = system: sorghum (SORVU, Sorghum bicolor); experiment: Postemergence greenhouse trial, herbicidal efficacy on sorghum; conditions: applied alone at 35 g/ha; for % visual injury, Obs, SORVU: rated after 20-22 d; for Obs, % visual injury, SORVU: scored 20-22 d
Method: as §1, §2, §3

[11] = system: chickweed (STEME, Stellaria media); experiment: Postemergence greenhouse trial, herbicidal efficacy on chickweed; conditions: post-emergence, 528 h, applied alone at 35 g/ha, postemergence
Method: as §1, §2, §3

[12] = system: wild pansy (VIOTR, Viola tricolor); experiment: Postemergence greenhouse trial, herbicidal efficacy on wild pansy; conditions: applied alone at 35 g/ha, postemergence; for pest or weed control at 35 g/ha: Viola tricolor, post-emergence, 528 h, scored 20-22 d, read-out: Obs, % visual injury, VIOTR; for % visual injury, Obs, VIOTR: rated after 20-22 d
Method: as §1, §2, §3

[13] = system: corn/maize (ZEAMX), Zea mays; experiment: Postemergence greenhouse trial, crop injury (phytotoxicity/safening) on corn/maize; conditions: applied alone at 35 g/ha, rated after 20-22 d
Method: as §1
as §2, with “All herbicide application (component a) rates are in g ae/ha and all safener (component b) rates are in g ai/ha.” left out
as §3, with “Colby's equation was used to determine the herbicidal effects expected from the mixtures.” left out
as §4, with “compound” for “compound 3, compound 4, compound”, “corn/maize (ZEAMX)” for “wheat (TRZAS),”, “bicolor), and” for “bicolor),”, “media)” for “media), and wild pansy (VIOTR, Viola tricolor)”
The safener mefenpyr-diethyl was combined with compound 1, compound 2, and compound 5, and applied to corn/maize (ZEAMX) and the phytotoxicity of the herbicidal compositions were measured. […]

[14] = system: giant foxtail (SETFA, Setaria faberi); experiment: Postemergence greenhouse trial, herbicidal efficacy on giant foxtail; conditions: applied alone at 35 g/ha
Method: as §1, §2, §3

[15] = rated after 20-22 d, read-out: % visual injury, Obs, ABUTH
[16] = scored 20-22 d, read-out: Obs, % visual injury, ABUTH
[17] = rated after 20-22 d, read-out: % visual injury, Obs, AMARE
[18] = scored 20-22 d, read-out: Obs, % visual injury, AMARE
[19] = rated after 20-22 d, read-out: % visual injury, Obs, BRSNW
[20] = scored 20-22 d, read-out: Obs, % visual injury, BRSNW
[21] = rated after 20-22 d, read-out: % visual injury, Obs, CHEAL
[22] = scored 20-22 d, read-out: Obs, % visual injury, CHEAL
[23] = rated after 20-22 d, read-out: % visual injury, Obs, CIRAR
[24] = scored 20-22 d, read-out: Obs, % visual injury, CIRAR
[25] = rated after 20-22 d, read-out: % visual injury, Obs, POLCO
[26] = scored 20-22 d, read-out: Obs, % visual injury, POLCO
[27] = rated after 20-22 d, read-out: % visual injury, Obs, STEME
[28] = scored 20-22 d, read-out: Obs, % visual injury, STEME

Row | SMILES | Obs, % visual injury, TRZAS [1] [%] | pest or weed control at 35 g/ha [2, 15] [%] | pest or weed control at 35 g/ha [2, 16] [%] | pest or weed control at 35 g/ha [3, 17] [%] | pest or weed control at 35 g/ha [3, 18] [%] | plant injury at 35 g/ha [4, 19] [%] | plant injury at 35 g/ha [4, 20] [%] | pest or weed control at 35 g/ha [5, 21] [%] | pest or weed control at 35 g/ha [5, 22] [%] | pest or weed control at 35 g/ha [6, 23] [%] | pest or weed control at 35 g/ha [6, 24] [%] | % visual injury, Obs, CYPES [7] [%] | pest or weed control at 35 g/ha [8] [%] | Obs, % visual injury, EPHHL [8] [%] | pest or weed control at 35 g/ha [9, 25] [%] | pest or weed control at 35 g/ha [9, 26] [%] | % visual injury, Obs, SORVU [10] [%] | pest or weed control at 35 g/ha [11, 27] [%] | pest or weed control at 35 g/ha [11, 28] [%] | pest or weed control at 35 g/ha [12] [%] | also measured
1 | COC(=O)c1nc(-c2ccc3ccn(C(=O)C(C)C)c3c2F)c(F)c(N)c1Cl [compound 4] | 40 | 80 | 80 | 100 | 100 | 97 | 97 | 97 | 97 | 75 | 75 | 0 | 100 | 100 | 100 | 100 | 80 | 93 | 93 | 60 | Obs, % visual injury, CYPES [7]: 0%; % visual injury, Obs, ZEAMX [13]: 35%
2 | CCOC(=O)c1nc(C(Cl)(Cl)Cl)n(-c2ccc(Cl)cc2Cl)n1 [fenchlorazole-ethyl, reference compound] | – | 0 | 0 | 0 | 0 | 0 | 0 | 0 | 0 | 0 | 0 | 0 | 0 | 0 | 0 | 0 | 0 | 0 | 0 | 0 | Obs, % visual injury, CYPES [7]: 0%; % visual injury, Obs, SETFA ([14]; rated after 20-22 d): 0%; Obs, % visual injury, SETFA ([14]; scored 20-22 d): 0%; Obs, % visual injury, SORVU [10]: 0%
3 | Nc1c(F)c(-c2ccc3cc[nH]c3c2F)nc(C(=O)O)c1Cl [compound 1] | – | 85 | 85 | 100 | 100 | 99 | 99 | 100 | 100 | 90 | 90 | – | 100 | 100 | 99 | 99 | – | 100 | 100 | 64 | % visual injury, Obs, VIOTR [12]: 64%
4 | COC(=O)c1nc(-c2ccc3ccn(C(C)=O)c3c2F)c(F)c(N)c1Cl [compound 3] | 30 | – | 50 | – | 75 | – | 30 | – | 85 | – | 50 | – | – | 100 | – | 97 | – | – | – | – | –
5 | COC(=O)c1nc(-c2ccc3ccn(C(=O)C(C)(C)C)c3c2F)c(F)c(N)c1Cl [compound 5] | 45 | 80 | 80 | 100 | 100 | 97 | 97 | 100 | 100 | 80 | 80 | 0 | 100 | – | 100 | – | 60 | 85 | 85 | 40 | Obs, % visual injury, SORVU [10]: 60%; % visual injury, Obs, VIOTR [12]: 40%; % visual injury, Obs, ZEAMX [13]: 35%
6 | Nc1c(F)c(-c2ccc3cc[nH]c3c2F)nc(C(=O)OCc2ccccc2)c1Cl [compound 2] | – | 80 | – | 100 | 100 | 100 | 100 | 97 | 97 | 70 | 70 | – | 100 | – | 100 | 100 | – | 100 | 100 | 40 | Obs, % visual injury, SORVU [10]: 70%; % visual injury, Obs, VIOTR [12]: 40%
